Results from patent US20120190669A1, “OXINDOLE COMPOUNDS” (CYLENE PHARMACEUTICALS, INC., priority 2008, published 2012).
pIC50: −log10 of the molar value. Where two headings read alike, the source gives them in different places.

Columns and labels:
[1] = target: recombinant PIM-1 (Homo sapiens, UniProt P11309); experiment: PIM-1 kinase assay (radiometric, 15 uM ATP, DMSO 4%); type: biochemical; details: for inhibition at 0.5 µM: Table 5, compound at 500 nM, read-out: PIM1: % inh 500 nM; for pIC50: Table 3, DMSO 4%, read-out: PIM1: IC50 (DMSO 4%)
recombinant PIM-1, sequence (P11309 whole entry): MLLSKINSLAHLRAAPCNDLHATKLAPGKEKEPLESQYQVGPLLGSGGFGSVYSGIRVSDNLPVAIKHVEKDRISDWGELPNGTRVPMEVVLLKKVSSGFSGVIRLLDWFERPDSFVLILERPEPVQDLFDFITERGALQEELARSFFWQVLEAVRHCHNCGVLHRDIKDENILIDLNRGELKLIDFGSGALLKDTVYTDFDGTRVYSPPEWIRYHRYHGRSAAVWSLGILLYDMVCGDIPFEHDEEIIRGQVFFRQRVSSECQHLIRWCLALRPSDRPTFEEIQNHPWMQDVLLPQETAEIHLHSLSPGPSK

[2] = test system: K-562; experiment: Alamar Blue cell proliferation assay, K-562; type: cell-based; details: Homo sapiens
Protocol: (§1) A representative cell-proliferation assay protocol using Alamar Blue dye (stored at 4° C., use 20 ul per well) is described hereafter.
(§2) 96-Well Plate Setup and Compound Treatment
(§3) a. Split and trypsinize cells.
(§4) b. Count cells using hemocytometer.
(§5) c. Plate 4,000-5,000 cells per well in 100 μl of medium and seed into a 96-well plate according to the following plate layout. Add cell culture medium only to wells B10 to B12. Wells B1 to B9 have cells but no compound added.
(§6) d. Add 100 μl of 2× drug dilution to each well in a concentration shown in the plate layout above. At the same time, add 100 μl of media into the control wells (wells 1310 to B12). Total volume is 200 μl/well.
(§7) e. Incubate four (4) days at 37° C., 5% CO2 in a humidified incubator.
(§8) f. Add 20 μl Alamar Blue reagent to each well.
(§9) g. Incubate for four (4) hours at 37° C., 5% CO2 in a humidified incubator.
(§10) h. Record fluorescence at an excitation wavelength of 544 nm and emission wavelength of 590 nm using a microplate reader.
(§11) In the assays, cells are cultured with a test compound for approximately four days, the dye is then added to the cells and fluorescence of […] dye is detected after approximately four hours. Different types of cells can be utilized in the assays (e.g., HCT-116 human colorectal carcinoma cells, PC-3 human prostatic cancer cells and MiaPaca human pancreatic carcinoma cells).

[3] = test system: PC-3 human prostatic cancer cells; experiment: Alamar Blue cell proliferation assay, PC3; type: cell-based
Protocol: as §1, §2, §3, §4, §5, §6, §7, §8, §9, §10, §11

[4] = test system: MV-4-11; experiment: Alamar Blue cell proliferation assay, MV-4-11; type: cell-based; details: Homo sapiens
Protocol: as §1, §2, §3, §4, §5, §6, §7, §8, §9, §10, §11

[5] = test system: MiaPaca human pancreatic carcinoma cells; experiment: Alamar Blue cell proliferation assay, MiaPaCa; type: cell-based
Protocol: as §1, §2, §3, §4, §5, §6, §7, §8, §9, §10, §11

[6] = test system: HCT-116 human colorectal carcinoma cells; experiment: Alamar Blue cell proliferation assay, HCT-116; type: cell-based; details: Table 5, read-out: AB: HCT-116 IC50
Protocol: as §1, §2, §3, §4, §5, §6, §7, §8, §9, §10, §11

[7] = test system: MDAMB-231; experiment: Alamar Blue cell proliferation assay, MDAMB-231; type: cell-based; details: Homo sapiens, MDA-MB-231, Table 3, read-out: AB: MDAMB-231
Protocol: as §1, §2, §3, §4, §5, §6, §7, §8, §9, §10, §11

[8] = target: recombinant human PIM2 (Homo sapiens, UniProt Q9P1W9); experiment: PIM-2 assay (radiometric); type: biochemical; details: Table 6; 15 μm ATP; read-out: PIM2: IC50 (15 μm ATP)
recombinant human PIM2, sequence (Q9P1W9 whole entry): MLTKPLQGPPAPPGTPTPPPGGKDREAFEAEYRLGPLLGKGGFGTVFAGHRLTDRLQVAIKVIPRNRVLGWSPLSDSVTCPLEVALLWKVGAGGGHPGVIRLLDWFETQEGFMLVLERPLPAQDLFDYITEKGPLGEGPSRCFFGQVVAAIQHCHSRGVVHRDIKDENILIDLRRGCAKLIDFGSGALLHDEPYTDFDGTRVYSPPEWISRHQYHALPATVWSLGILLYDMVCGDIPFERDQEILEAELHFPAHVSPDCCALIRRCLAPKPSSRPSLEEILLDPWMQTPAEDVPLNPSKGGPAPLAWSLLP
Protocol: Test compounds dissolved and diluted in DMSO ([…]) were added to a reaction mixture comprising […] of 5× Reaction Buffer (40 mM MOPS pH 7.0, 5 mM EDTA), […] of recombinant human PIM2 solution (4 ng PIM-2 dissolved in dilution buffer (20 mM MOPS pH 7.0; EDTA 1 mM; 5% Glycerol; 0.01% Brij 35; […]; […] 2-mercaptoethanol; 1 mg/ml BSA)) and 8 ul of water. Reactions were initiated by the addition of 10 ul of ATP Solution (49% (15 mM MgCl2; 75 uM ATP) 1% ([γ-33P]ATP: Stock 1 mCi/100 μl; 3000 Ci/mmol (Perkin Elmer)) and 10 ul of substrate peptide solution ([…], dissolved in water at a concentration of 1 mM), Reactions were maintained for 10 min at 30° C. The reactions were quenched with 100 ul of 0.75% Phosphoric acid, then transferred to and filtrered through a Phosphocellulose filter plate (Millipore, MSPH-N6B-50). After washing each well 4 times with 0.75% Phosphoric acid, scintillation fluid (20 uL) was added to each well and the residual radioactivity was measured using a Wallac […] counter.

[9] = K562, Table 5, read-out: AB: K-562 IC50
[10] = Table 5, read-out: AB: PC3 IC50
[11] = MV4-11, Table 5, read-out: AB: MV-4-11 IC50
[12] = MIA PaCa-2, Table 5, read-out: AB: MiaPaCa IC50
[13] = K562, Table 3, read-out: AB: K-562
[14] = MV4-11, Table 3, read-out: AB: MV-4-11
[15] = MIA PaCa-2, Table 3, read-out: AB: MiaPaCa

**Q.** Cn1cncc1CNC(=O)c1cccc(-c2coc(/C=C3/C(=O)Nc4ccc(F)cc43)c2)c1 [drawing 252] was tested. Which inhibition at 0.5 µM [1] did it give?
**A.** 12.7%

**Q.** And the pIC50 [2, 9]?
**A.** < 5.00

**Q.** What about the pIC50 [3, 10] of the same compound?
**A.** < 5.00

**Q.** And the pIC50 [4, 11]?
**A.** 5.86

**Q.** And the pIC50 [5, 12]?
**A.** < 5.00

**Q.** What about the pIC50 [6] of the same compound?
**A.** < 5.00

**Q.** How did the inhibition at 0.5 µM [1] turn out when CN1CCCCC1CNC(=O)c1cccc(-c2coc(/C=C3/C(=O)Nc4ccc(F)cc43)c2)c1 (stereo not shown) [drawing 253] was run?
**A.** 9.42%

**Q.** And the pIC50 [2, 9]?
**A.** 5.78

**Q.** What about the pIC50 [3, 10] of the same compound?
**A.** < 5.00

**Q.** And the pIC50 [4, 11]?
**A.** 6.20

**Q.** And the pIC50 [5, 12]?
**A.** < 5.00

**Q.** What about the pIC50 [6] of the same compound?
**A.** 5.35

**Q.** Which results are given for CC/C(=C1\C(=O)Nc2ccc(Cl)cc21)c1ccc(-c2cccc(C(=O)N3CCCN(C)CC3)c2)o1?
**A.** pIC50 [2, 13]: 6.82; pIC50 [7]: < 5.00; pIC50 ([3]; Table 3, read-out: AB: PC3): < 4.52; pIC50 [4, 14]: 6.96; pIC50 [5, 15]: 6.52

**Q.** How did the pIC50 [8] turn out when CCN(CC)CCNC(=O)c1ccc(-c2ccc(/C=C3/C(=O)Nc4ccc(Cl)cc43)o2)cc1 [drawing 260] was run?
**A.** > 6.00

**Q.** How did the pIC50 [1] turn out when O=C1Nc2ccc(Cl)cc2/C1=C/c1ccc(-c2ccc3cc(O)ccc3c2)o1 was run?
**A.** > 6.00

**Q.** What about the pIC50 [2, 13] of the same compound?
**A.** < 5.00

**Q.** What about the pIC50 [7] of the same compound?
**A.** < 5.00

**Q.** What about the pIC50 ([3]; Table 3, read-out: AB: PC3) of the same compound?
**A.** 4.92

**Q.** And the pIC50 [4, 14]?
**A.** 6.72

**Q.** What about the pIC50 [5, 15] of the same compound?
**A.** < 5.00

**Q.** With O=C1Nc2ccc(Cl)cc2/C1=C\c1ccc(-c2cccc(C(=O)N3CCCNCC3)c2)o1 as the compound, how does the pIC50 [2, 13] read?
**A.** 6.47

**Q.** What about the pIC50 [7] of the same compound?
**A.** 5.50

**Q.** What about the pIC50 ([3]; Table 3, read-out: AB: PC3) of the same compound?
**A.** 5.02

**Q.** What about the pIC50 [5, 15] of the same compound?
**A.** 6.09

**Q.** CCN1CCCC1CNC(=O)c1cccc(-c2coc(/C=C3/C(=O)Nc4ccc(F)cc43)c2)c1 (stereo not shown) [drawing 250] was tested. Which inhibition at 0.5 µM [1] did it give?
**A.** 17.1%

**Q.** What about the pIC50 [2, 9] of the same compound?
**A.** 6.03

**Q.** What about the pIC50 [3, 10] of the same compound?
**A.** < 5.00

**Q.** What about the pIC50 [4, 11] of the same compound?
**A.** 6.31

**Q.** And the pIC50 [5, 12]?
**A.** < 5.00

**Q.** What about the pIC50 [6] of the same compound?
**A.** 5.28

**Q.** Which inhibition at 0.5 µM [1] does the source give for CN(C)C1CCN(C(=O)c2cccc(-c3coc(/C=C4/C(=O)Nc5ccccc54)c3)c2)CC1 here?
**A.** -38.8%

**Q.** And the pIC50 [2, 9]?
**A.** 7.11

**Q.** What about the pIC50 [3, 10] of the same compound?
**A.** < 5.00

**Q.** What about the pIC50 [4, 11] of the same compound?
**A.** 5.67

**Q.** And the pIC50 [5, 12]?
**A.** 5.03

**Q.** What about the pIC50 [6] of the same compound?
**A.** 5.15

**Q.** CC(=O)Nc1cccc(-c2ccc(/C=C3\C(=O)Nc4ccc(Cl)cc43)o2)c1 was tested. Which pIC50 [1] did it give?
**A.** > 6.00

**Q.** What about the pIC50 [2, 13] of the same compound?
**A.** < 5.00

**Q.** And the pIC50 [7]?
**A.** < 5.00

**Q.** What about the pIC50 ([3]; Table 3, read-out: AB: PC3) of the same compound?
**A.** 5.57

**Q.** What about the pIC50 [4, 14] of the same compound?
**A.** 6.13

**Q.** And the pIC50 [5, 15]?
**A.** < 5.00

**Q.** What does the source list for CN1CCCC(NC(=O)c2cccc(-c3coc(/C=C4/C(=O)Nc5ccc(F)cc54)c3)c2)C1 (stereo not shown) [drawing 249]?
**A.** inhibition at 0.5 µM [1]: 6.11%; pIC50 [2, 9]: 5.51; pIC50 [3, 10]: 5.15; pIC50 [4, 11]: 5.99; pIC50 [5, 12]: < 5.00; pIC50 [6]: 5.33

**Q.** Which results are given for O=C1Nc2ccc(Cl)cc2/C1=C/c1ccc(-c2cnn(CCN3CCOCC3)c2)o1?
**A.** pIC50 [1]: > 6.00; pIC50 [2, 13]: 5.63; pIC50 [7]: < 5.00; pIC50 ([3]; Table 3, read-out: AB: PC3): < 4.52; pIC50 [4, 14]: 6.70; pIC50 [5, 15]: < 5.00

**Q.** With COC(=O)c1cccc(-c2coc(/C=C3/C(=O)Nc4ccccc43)c2)c1 as the compound, how does the inhibition at 0.5 µM [1] read?
**A.** -18.4%

**Q.** And the pIC50 [2, 9]?
**A.** 5.88

**Q.** And the pIC50 [3, 10]?
**A.** 5.72

**Q.** What about the pIC50 [4, 11] of the same compound?
**A.** < 5.00

**Q.** What about the pIC50 [5, 12] of the same compound?
**A.** 5.36

**Q.** And the pIC50 [6]?
**A.** 5.63

**Q.** Which results are given for O=C1Nc2ccc(Cl)cc2/C1=C\c1ccc(-c2cccc(-c3nnc[nH]3)c2)o1?
**A.** pIC50 [1]: > 6.00; pIC50 [2, 13]: < 5.00; pIC50 [7]: < 5.00; pIC50 ([3]; Table 3, read-out: AB: PC3): < 4.52; pIC50 [4, 14]: < 5.00; pIC50 [5, 15]: < 5.00
